Experimental data as given in patent US8853260B2, “Formulations of pharmacological agents, methods for the preparation thereof and methods for the use thereof” (priority 1997, dated 2014).

How the values were obtained:
[1] = Blood kinetics following multiple intravenous dose levels of Capxol; assay type: in vivo, rat
Method: Blood was collected from the tail vein and the AUC0-24 was calculated. At 24 hours, blood samples were collected; extracted, and the extract injected on HPLC to determine the level of parent compound in the blood.

[2] = test system: patients with breast cancer, non-Hodgkin's lymphoma or ovarian cancer; settings: cited from earlier work
[3] = test system: ovarian cancer and breast cancer; settings: 250 mg/m^2/21 days; cited from earlier work

SMILES: CC(=O)O[C@H]1C(=O)[C@@]2(C)[C@H]([C@H](OC(=O)c3ccccc3)[C@]3(O)C[C@H](OC(=O)[C@H](O)[C@@H](NC(=O)c4ccccc4)c4ccccc4)C(C)=C1C3(C)C)[C@]1(OC(C)=O)CO[C@@H]1C[C@@H]2O [paclitaxel]
- level of parent compound in blood after 24 hours ([1]; 9 mg/kg dose, given as Capxol): 0.04 ppm
- increase of parent compound level after 24 hours, factor ([1]; from the 9 mg/kg dose to the 148 mg/kg dose): 8.5
- MTD ([2]; 24 hour infusion, combined with cyclophosphamide 5,625 mg/m^2 and cisplatin 165 mg/m^2, AHPCS): 775 mg/m^2
- partial response ([2]; patients with breast cancer, combination with cyclophosphamide and cisplatin): 54%
- objective response rate [3]: 35.9%
